Reference: patent US8324380B2, “Amino-heteroaryl-containing prokineticin 1 receptor antagonists” (Janssen Pharmaceutica NV, priority 2007, dated 2012)
“And” between values parts separate entries of the source, which are not always exact repeats. Equal entries are not always repeated. Where two headings read alike, the source gives them in different places.

How the values were obtained:
[1] = target: T1, GPR73 (prokineticin 1 receptor) (Homo sapiens, UniProt Q8TCW9); assay: PK1 functional assay: Ca2+ mobilization on the FLIPR; format: cell-based; conditions: for inhibition at 10 µM: read-out: Ca^2+ Mobilization % Inh @10 µM; for IC50: HEK 293 GPR73 cells, read-out: Ca^2+ Mobilization IC50
T1 construct: expressed in transfected cells; host or cells: HEK 293
Protocol: At a time of 24 h prior to running the assay, in cell culture media (DMEM containing high Glucose and L-glutamine, 10% FBS, 1% Pen/Streptomycin, 1% Sodium Pyruvate, 20 mM HEPES, Zeocin 200 mg/L), 100 µL of 1.3*10^6/ml HEK 293 GPR73 (prokineticin 1 receptor) expressing cells were plated in a 96 well poly-d-lysine coated plate (Costar), and incubated at 37° C. and 5% CO2. On the day in which the assay was run, the media was removed and 200 µL of 5× Calcium Plus Dye (Molecular Devices) which was previously resuspended with 200 mL of assay buffer [HBSS w/Ca^2+ and Mg^2+ w/o phenol red, 20 mM HEPES, 0.1% BSA, 10 mL probenecid (710 mg probenecid in 5 mL of 1N NaOH, to which was then added 5 mL HBSS containing 20 mM HEPES)] was added to each well of the 96-well plate. The plate was incubated at 37° C. and 5% CO2 for 30 min in dark. The plate was removed and allowed to reach RT for 15 min in the dark. The assay was then run on the FLIPR. In Brief: base line read for 1 min, compound added (25 μL) and incubated for 4 min, 15 seconds, PK1 ligand preparation added (25 μL) for a final concentration of a previously determined EC50 and fluorescence was counted for 1 min, 45 seconds. Baseline is described as the amount of relative fluorescence read when buffer alone is added to cells. Baseline was subtracted from all wells. Percent of control was calculated as follows: (Baseline subtracted well value is divided by baseline subtracted max value)*100. Percent inhibition is 100 minus the percent of control value.
The IC50 is defined as the amount of a given compound required to inhibit 50% of the maximum signal that is generated by the concentration of PK1 preparation used in our assay. IC50 values were calculated using GraphPad Prism.

rat ileal tissues = assay: PK1-evoked short-circuit current (Isc) in rat ileum mucosa, Ussing-type flux chambers

T1 sequence (Q8TCW9 whole entry, species assumed): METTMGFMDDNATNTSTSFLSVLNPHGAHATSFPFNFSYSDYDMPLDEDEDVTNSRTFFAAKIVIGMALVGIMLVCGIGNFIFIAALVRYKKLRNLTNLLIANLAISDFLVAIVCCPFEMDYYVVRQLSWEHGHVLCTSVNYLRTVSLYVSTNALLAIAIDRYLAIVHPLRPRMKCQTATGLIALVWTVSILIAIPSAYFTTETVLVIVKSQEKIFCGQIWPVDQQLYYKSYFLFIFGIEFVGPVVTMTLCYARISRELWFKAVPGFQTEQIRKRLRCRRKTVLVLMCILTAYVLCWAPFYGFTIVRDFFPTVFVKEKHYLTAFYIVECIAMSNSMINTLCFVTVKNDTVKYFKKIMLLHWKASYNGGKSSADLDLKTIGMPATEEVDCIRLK

Structure (SMILES)	inhibition at 10 µM ([1]; 10 µM) [%]	IC50 [1]	inhibition at 10 µM ([1]; 10 µM, (further determination)) [%]	IC50 ([1]; IC50 (further determination)) [nM]	blockade of the pro-secretory effect of PK1 (rat ileal tissues)
Nc1ncc(CCNc2nc(=O)n(Cc3ccc(Cl)c(Cl)c3)c(=O)n2Cc2ccc(OC(F)F)cc2)[nH]1 [Cpd 79]	96	102 nM	–	–	–
NC1=Nc2ccc(Cl)cc2CN1CCNc1nc(=O)n(Cc2ccc(F)cc2)c(=O)n1Cc1ccc(OC(F)(F)F)cc1 [Cpd 49]	103	233 nM	–	–	–
NC1=Nc2cccc(Cl)c2CN1CCNc1nc(=O)n(Cc2ccc(F)cc2)c(=O)n1Cc1ccc(OC(F)F)cc1 [Cpd 42]	101	63 nM	–	–	–
Nc1ncc(CCNc2nc(=O)n(Cc3ccc4c(c3)CCO4)c(=O)n2Cc2ccc3c(c2)CCO3)[nH]1 [Cpd 66]	69	2420 nM	–	–	–
Nc1ncc(CCNc2nc(=O)n(Cc3ccc(F)cc3)c(=O)n2Cc2ccc(OC(F)(F)F)cc2)[nH]1 [Cpd 54, 6-[2-(2-Amino-3H-imidazol-4-yl)-ethylamino]-3-(4-fluoro-benzyl)-1-(4-trifluoromethoxy-benzyl)-1H-[1,3,5]triazine-2,4-dione]	96	27 nM and 183 nM	95	97	–
COc1ccc(Cn2c(NCCc3cnc(N)[nH]3)nc(=O)n(Cc3ccc(SC)cc3)c2=O)cc1 [Cpd 61]	101	21 nM	102	19	–
Nc1ncc(CCNc2nc(=O)n(Cc3ccc4c(c3)CCO4)c(=O)n2Cc2ccc(OC(F)F)cc2)[nH]1 [Cpd 82]	96	202 nM	–	–	–
Nc1nc2c(F)cc(F)cc2n1CCNc1nc(=O)n(Cc2ccc(F)cc2)c(=O)n1Cc1ccc(OC(F)(F)F)cc1 [Cpd 36]	50	8240 nM	–	–	–
Nc1nc2cc(C(F)(F)F)ccc2n1CCNc1nc(=O)n(Cc2ccc(F)cc2)c(=O)n1Cc1ccc(OC(F)F)cc1 [Cpd 27]	85	310 nM	–	–	–
Cn1nnc2cc(Cn3c(=O)nc(NCCc4cnc(N)[nH]4)n(Cc4ccc5c(c4)CCO5)c3=O)ccc21 [Cpd 68]	78	1410 nM	–	–	–
COc1ccc(Cn2c(NCCn3c(N)nc4cc(F)ccc43)nc(=O)n(Cc3ccc(F)cc3)c2=O)cc1 [Cpd 5]	102	69 nM	–	–	–
Nc1nc2cc(F)ccc2n1CCNc1nc(=O)n(Cc2ccc(F)cc2)c(=O)n1Cc1ccc(OC(F)(F)F)cc1 [Cpd 34]	87	363 nM	–	–	–
Nc1nccn1CCNc1nc(=O)n(Cc2ccc(F)cc2)c(=O)n1Cc1ccc(OC(F)F)cc1 [Cpd 23]	100	28 nM	97	57	–
Cn1nnc2cc(Cn3c(=O)nc(NCCc4cnc(N)[nH]4)n(Cc4ccc(OC(F)F)cc4)c3=O)ccc21 [Cpd 83]	98	224 nM	–	–	–
Nc1nc2ccc(Cl)cc2n1CCNc1nc(=O)n(Cc2ccc(F)cc2)c(=O)n1Cc1ccc(OC(F)(F)F)cc1 [Cpd 38]	84	670 nM	–	–	–
NC1=Nc2cc(F)ccc2CN1CCNc1nc(=O)n(Cc2ccc(F)cc2)c(=O)n1Cc1ccc(OC(F)F)cc1 [Cpd 46]	101	61 nM	–	–	–
NC1=Nc2ccc(O)cc2CN1CCNc1nc(=O)n(Cc2ccc(F)cc2)c(=O)n1Cc1ccc(OC(F)F)cc1 [Cpd 56]	100	161 nM	–	–	–
CN1[C@@H]2CC[C@H]1C[C@@H](OC(=O)C(CO)c1ccccc1)C2 (stereo partly drawn) [Atropine, reference compound]	–	–	–	–	not blocked
COc1ccc(Cn2c(NCCc3cnc(N)[nH]3)nc(=O)n(Cc3ccc4c(c3)CCO4)c2=O)cc1 [Cpd 62]	97	241 nM	–	–	–

Structure (SMILES)	inhibition at 10 µM ([1]; 10 µM) [%]	IC50 [1]	inhibition at 10 µM ([1]; 10 µM, (further determination)) [%]	IC50 ([1]; IC50 (further determination)) [nM]	blockade of the pro-secretory effect of PK1 (rat ileal tissues)
COc1ccc(Cn2c(NCCn3c(N)nc4ccccc43)nc(=O)n(Cc3ccc(Cl)cc3)c2=O)cc1 [Cpd 14]	95	77 nM	–	–	–
COc1ccc(Cn2c(NCCNc3nc4ccccc4[nH]3)nc(=O)n(Cc3ccc(Cl)c(Cl)c3)c2=O)cc1 [Cpd 1, 6-[2-(1H-Benzoimidazol-2-ylamino)-ethylamino]-3-(3,4-dichloro-benzyl)-1-(4-methoxy-benzyl)-1H-[1,3,5]triazine-2,4-dione]	40.4	> 10000 nM	–	–	–
COc1ccc(Cn2c(NCc3c[nH]c(N)n3)nc(=O)n(Cc3ccc(F)cc3)c2=O)cc1 [Cpd 6]	91	322 nM	–	–	–
NC1=Nc2ccc(Cl)cc2CN1CCNc1nc(=O)n(Cc2ccc(F)cc2)c(=O)n1Cc1ccc(OC(F)F)cc1 [Cpd 43]	101	111 nM	–	–	–
Nc1nc2ccc(F)cc2n1CCNc1nc(=O)n(Cc2ccc(F)cc2)c(=O)n1Cc1ccc(OC(F)F)cc1 [Cpd 25]	87	170 nM	–	–	–
Nc1nc2cccc(F)c2n1CCNc1nc(=O)n(Cc2ccc(F)cc2)c(=O)n1Cc1ccc(OC(F)(F)F)cc1 [Cpd 40]	91	969 nM	–	–	–
COc1ccc(Cn2c(NCCn3c(N)nc4c(F)cccc43)nc(=O)n(Cc3ccc(F)cc3)c2=O)cc1 [Cpd 11]	89	146 nM	–	–	–
COc1ccc(Cn2c(NCCn3c(N)nc4ccccc43)nc(=O)n(Cc3ccc4c(c3)CCO4)c2=O)cc1 [Cpd 72]	102	58 nM	–	–	–
Nc1nc2c(F)cc(F)cc2n1CCNc1nc(=O)n(Cc2ccc(F)cc2)c(=O)n1Cc1ccc(OC(F)F)cc1 [Cpd 28]	39	> 10000 nM	–	–	–
Nc1nc2ccccc2n1CCNc1nc(=O)n(Cc2ccc3c(c2)CCO3)c(=O)n1Cc1ccc(OC(F)F)cc1 [Cpd 87]	102	223 nM	–	–	–
NC1=N[C@H](O)[C@H]2[C@H]3O[C@]4(O)O[C@@H]([C@@H](O)[C@@]2(N1)[C@@H]4O)[C@]3(O)CO [Tetrodotoxin, reference compound]	–	–	–	–	not blocked
NC1=Nc2cc(F)ccc2CN1CCNc1nc(=O)n(Cc2ccc(F)cc2)c(=O)n1Cc1ccc(OC(F)(F)F)cc1 [Cpd 52]	104	359 nM	–	–	–
Nc1nccn1CCNc1nc(=O)n(Cc2ccc(F)cc2)c(=O)n1Cc1ccc(OC(F)(F)F)cc1 [Cpd 22]	100	61 nM	–	–	–
CSc1ccc(Cn2c(=O)nc(NCCc3cnc(N)[nH]3)n(Cc3ccc(OC(F)F)cc3)c2=O)cc1 [Cpd 80]	98	32 nM	–	–	–
Nc1nccn1CCNc1nc(=O)n(Cc2ccc(F)cc2)c(=O)n1Cc1ccc(F)cc1 [Cpd 21]	37	> 10000 nM	–	–	–
CCc1ccc(Cn2c(=O)nc(NCCn3c(N)nc4ccccc43)n(Cc3ccc4c(c3)CCO4)c2=O)cc1 [Cpd 75]	83	507 nM	–	–	–
COc1ccc(Cn2c(NCCn3ccnc3N)nc(=O)n(Cc3ccc(F)cc3)c2=O)cc1 [Cpd 2, 6-[2-(2-Amino-imidazol-1-yl)-ethylamino]-3-(4-fluoro-benzyl)-1-(4-methoxy-benzyl)-1H-[1,3,5]triazine-2,4-dione]	97	–	97	5	–
COc1ccc(Cn2c(C(=O)NCCn3c(N)nc4ccccc43)cc(=O)n(Cc3ccc(OC)cc3)c2=O)cc1 [Cpd 13, 1,3-Bis-(4-methoxy-benzyl)-2,6-dioxo-1,2,3,6-tetrahydro-pyrimidine-4-carboxylic acid [2-(2-amino-benzoimidazol-1-yl)-ethyl]-amide]	51	7390 nM	–	–	–
NC1=Nc2cc(Cl)ccc2CN1CCNc1nc(=O)n(Cc2ccc(F)cc2)c(=O)n1Cc1ccc(OC(F)F)cc1 [Cpd 44]	103	118 nM	–	–	–
